# Measurements from US9586961B2, “Homopiperazine derivatives as protein tyrosine kinase inhibitors and pharmaceutical use thereof” (LEO PHARMA A/S, priority 2010, dated 2017).
# How the values were obtained:
# Format in all cases: biochemical
# JAK1 = target: T1, JAK1 (Homo sapiens, UniProt P23458); experiment: JAK1 kinase assay (HTRF, inhibition of phosphorylation of a synthetic peptide); conditions: catalytic domain aa 850-1154, GST-tag; 7 μM ATP (Km); read-out: JAK1 kinase inhibitory activity (EC50)
# T1 construct: JAK1 (aa 850-1154) and TYK2 (aa 871-1187) are expressed with an N-terminally fused GST-tag; GST (N); purchased Carna Biosciences, Inc; host or cells: baculovirus expression system
# Method in brief: (§1)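 HTRF detection (streptavidin-XL665, cryptate anti-phospho antibody, overnight in the dark) after EDTA stop of a 20-30 min RT reaction on 1 μM TK substrate-biotin. Km-level ATP per kinase: 7 μM for JAK1 and 13 μM for TYK2, both N-terminal GST, with 50 nM SEB; 4 μM for JAK2 and 2 μM for JAK3, both His-tagged. Catalytic domains only; DMSO 0.75%.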
# JAK2 = target: T2, JAK2 (Homo sapiens, UniProt O60674); experiment: JAK2 kinase assay (HTRF, inhibition of phosphorylation of a synthetic peptide); conditions: catalytic domain, His-tag; 4 μM ATP (Km); read-out: JAK2 kinase inhibitory activity (EC50)
# T2 construct: All four purified enzymes contain only the catalytic domain; His (N); purchased Carna Biosciences, Inc; host or cells: baculovirus expression system
# Method in brief: as §1
# JAK3 = target: T3, JAK3 (Homo sapiens, UniProt P52333); experiment: JAK3 kinase assay (HTRF, inhibition of phosphorylation of a synthetic peptide); conditions: catalytic domain, His-tag; 2 μM ATP (Km); read-out: JAK3 kinase inhibitory activity (EC50)
# T3 construct: All four purified enzymes contain only the catalytic domain; His (N); purchased Carna Biosciences, Inc; host or cells: baculovirus expression system
# Method in brief: as §1
# TYK2 = target: T4, TYK2 (Homo sapiens, UniProt P29597); experiment: TYK2 kinase assay (HTRF, inhibition of phosphorylation of a synthetic peptide); conditions: catalytic domain aa 871-1187, GST-tag; 13 μM ATP (Km); read-out: TYK2 kinase inhibitory activity (EC50)
# T4 construct: JAK1 (aa 850-1154) and TYK2 (aa 871-1187) are expressed with an N-terminally fused GST-tag; GST (N); purchased Carna Biosciences, Inc; host or cells: baculovirus expression system
# T4 sequence (P29597 871-1187): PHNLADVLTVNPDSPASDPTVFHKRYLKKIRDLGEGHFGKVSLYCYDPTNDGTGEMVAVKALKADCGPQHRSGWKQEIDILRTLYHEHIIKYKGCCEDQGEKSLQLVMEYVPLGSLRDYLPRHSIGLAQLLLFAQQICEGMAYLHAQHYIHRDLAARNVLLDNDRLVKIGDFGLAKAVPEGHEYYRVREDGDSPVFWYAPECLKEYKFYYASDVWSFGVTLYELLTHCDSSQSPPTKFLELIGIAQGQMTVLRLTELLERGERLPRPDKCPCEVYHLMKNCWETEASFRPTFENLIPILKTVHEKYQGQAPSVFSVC
# Method in brief: as §1
# T1 sequence (P23458 850-1154): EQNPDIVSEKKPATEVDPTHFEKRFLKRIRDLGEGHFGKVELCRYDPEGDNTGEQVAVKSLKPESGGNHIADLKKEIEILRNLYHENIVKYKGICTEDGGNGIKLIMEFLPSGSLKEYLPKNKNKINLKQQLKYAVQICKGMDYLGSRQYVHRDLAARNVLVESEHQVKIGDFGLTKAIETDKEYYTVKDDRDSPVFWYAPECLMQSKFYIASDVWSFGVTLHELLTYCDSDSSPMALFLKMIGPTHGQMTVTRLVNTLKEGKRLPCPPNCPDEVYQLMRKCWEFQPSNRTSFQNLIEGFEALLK
# T3 sequence (P52333 822-1111 limits assumed): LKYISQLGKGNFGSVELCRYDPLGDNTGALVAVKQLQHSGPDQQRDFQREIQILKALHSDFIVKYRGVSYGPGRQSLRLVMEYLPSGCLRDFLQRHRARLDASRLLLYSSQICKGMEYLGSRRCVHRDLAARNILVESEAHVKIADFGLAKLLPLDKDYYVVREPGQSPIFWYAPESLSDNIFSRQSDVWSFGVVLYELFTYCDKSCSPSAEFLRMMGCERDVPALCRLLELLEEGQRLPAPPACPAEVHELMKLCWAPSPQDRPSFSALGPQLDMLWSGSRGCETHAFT
# T2 sequence (O60674 849-1124 limits assumed): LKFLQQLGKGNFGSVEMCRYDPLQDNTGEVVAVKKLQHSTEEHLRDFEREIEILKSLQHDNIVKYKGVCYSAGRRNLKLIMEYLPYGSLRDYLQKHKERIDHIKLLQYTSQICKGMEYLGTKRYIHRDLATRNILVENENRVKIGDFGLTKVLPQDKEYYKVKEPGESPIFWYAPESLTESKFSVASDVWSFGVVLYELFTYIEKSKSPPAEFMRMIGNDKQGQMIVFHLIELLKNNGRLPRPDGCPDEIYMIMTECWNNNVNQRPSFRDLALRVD
Compound,EC50 (JAK1) [nM],EC50 (JAK2) [nM],EC50 (JAK3) [nM],EC50 (TYK2) [nM]
"S=C(Nc1ccccc1)N1CCCN(c2ncnc3[nH]ccc23)CC12CC2 [Example 91, N-phenyl-5-(7H-pyrrolo[2,3-d]pyrimidin-4-yl)-5,9-diazaspiro[2.6]nonane-9-carbothioamide]",< 100,< 100,100 to 1000,> 1000
"O=C(CC1CCCC1)N1CCCN(c2ncnc3[nH]ccc23)CC12CC2 [Example 92, 2-cyclopentyl-1-[5-(7H-pyrrolo[2,3-d]pyrimidin-4-yl)-5,9-diazaspiro[2.6]nonan-9-yl]ethanone]",< 100,100 to 1000,100 to 1000,> 1000
"O=C(C1CCCCC1)N1CCCN(c2ncnc3[nH]ccc23)CC12CC2 [Example 93, cyclohexyl-[5-(7H-pyrrolo[2,3-d]pyrimidin-4-yl)-5,9-diazaspiro[2.6]nonan-9-yl]methanone]",< 100,< 100,100 to 1000,100 to 1000
"Cc1ccc(S(=O)(=O)N2CCCN(c3ncnc4[nH]ccc34)CC23CC3)cc1 [Example 94, 4-[9-(p-tolylsulfonyl)-5,9-diazaspiro[2.6]nonan-5-yl]-7H-pyrrolo[2,3-d]pyrimidine]",> 1000,> 1000,> 1000,> 1000
"S=C(CC1CCCC1)N1CCCN(c2ncnc3[nH]ccc23)CC12CC2 [Example 95, 2-cyclopentyl-1-[5-(7H-pyrrolo[2,3-d]pyrimidin-4-yl)-5,9-diazaspiro[2.6]nonan-9-yl]ethanethione]",< 100,100 to 1000,100 to 1000,> 1000
"CCCCS(=O)(=O)N1CCN(c2ncnc3[nH]ccc23)CC2(CC2)C1 [Example 97, 4-(8-butylsulfonyl-5,8-diazaspiro[2.6]nonan-5-yl)-7H-pyrrolo[2,3-d]pyrimidine]",100 to 1000,100 to 1000,> 1000,> 1000
"Cc1ccc(S(=O)(=O)N2CC3(CC3)CN(c3ncnc4[nH]ccc34)CC2C)cc1 (stereo not drawn) [Example 98, 4-[7-methyl-8-(p-tolylsulfonyl)-5,8-diazaspiro[2.6]nonan-5-yl]-7H-pyrrolo[2,3-d]pyrimidine]",> 1000,> 1000,> 1000,> 1000
"CC1CN(c2ncnc3[nH]ccc23)CC2(CC2)CN1C(=O)Nc1ccccc1 (stereo not drawn) [Example 99, 7-methyl-N-phenyl-5-(7H-pyrrolo[2,3-d]pyrimidin-4-yl)-5,8-diazaspiro[2.6]nonane-8-carboxamide]",> 1000,> 1000,> 1000,> 1000
"N#Cc1ccc(C(=O)C(=O)N2CCN(c3ncnc4[nH]ccc34)CC3(CC3)C2)cc1 [Example 100, 4-[2-oxo-2-[5-(7H-pyrrolo[2,3-d]pyrimidin-4-yl)-5,8-diazaspiro[2.6]nonan-8-yl]acetyl]benzonitrile]",< 100,< 100,> 1000,> 1000
"NS(=O)(=O)c1ccc2[nH]c(C(=O)N3CCN(c4ncnc5[nH]ccc45)CC4(CC4)C3)cc2c1 [Example 101, 2-[5-(7H-pyrrolo[2,3-d]pyrimidin-4-yl)-5,8-diazaspiro[2.6]nonane-8-carbonyl]-1H-indole-5-sulfonamide]",< 100,< 100,100 to 1000,100 to 1000
"CS(=O)(=O)Nc1ccc(C(=O)N2CCN(c3ncnc4[nH]ccc34)CC3(CC3)C2)cc1 [Example 102, N-[4-[5-(7H-pyrrolo[2,3-d]pyrimidin-4-yl)-5,8-diazaspiro[2.6]nonane-8-carbonyl]phenyl]methanesulfonamide]",100 to 1000,100 to 1000,100 to 1000,> 1000
"CN(CCC#N)S(=O)(=O)N1CCN(c2ncnc3[nH]ccc23)CC2(CC2)C1 [Example 103, N-(2-cyanoethyl)-N-methyl-5-(7H-pyrrolo[2,3-d]pyrimidin-4-yl)-5,8-diazaspiro[2.6]nonane-8-sulfonamide]",100 to 1000,100 to 1000,> 1000,> 1000
